From ChEMBL document CHEMBL1201862, “PubChem BioAssay data set” (2004)
Active and inactive are the calls of the source. For most assays here, no stated cut-off is given here; in the data, active = IC50 of 5 µM or less and inactive = more.

Columns and labels:
[1] = target: Estrogen receptor beta (Homo sapiens, UniProt Q92731);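 further: recombinant ER-beta bound to coactivator SRC1 peptide in presence of estradiol agonist; inhibitors block coactivator peptide binding and lower the FRET signal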
[2] = CellTiter-Glo luminescence survival assay, SW480 colon tumor line, concentration-response curve, half-maximal inhibitory concentration (AID 1117338); type: functional
[3] = SNU-C1 cell viability reduction, dose response, CellTiter-Glo luminescence (AID 1117323); type: functional, cell-based
[4] = cytotoxicity toward HCT116 cells – cell-based, CellTiter-Glo luminescence, IC50, dose response (AID 1117332); type: functional; conditions: HCT-116
[5] = HCT116 cell viability decrease, GSK3B pretreatment – CellTiter-Glo, IC50, dose response (AID 1117339); type: functional; conditions: HCT-116
[6] = cytotoxicity toward Colo320 cells – cell-based, CellTiter-Glo luminescence, IC50, dose response (AID 1117334); type: functional; conditions: COLO 320
[7] = Reduced DLD-1 viability, concentration-response, CellTiter-Glo luminescence (AID 1117352); type: functional
[8] = cytotoxicity toward HT-29 cells – cell-based, CellTiter-Glo luminescence, IC50, dose response (AID 1117330); type: functional
[9] = RKO cell viability reduction, dose response, CellTiter-Glo luminescence (AID 1117322); type: functional
[10] = target: T1, Estrogen receptor (Homo sapiens, UniProt P03372);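 further: potency for inhibiting coactivator peptide recruitment to the receptor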
T1 sequence (P03372 whole entry): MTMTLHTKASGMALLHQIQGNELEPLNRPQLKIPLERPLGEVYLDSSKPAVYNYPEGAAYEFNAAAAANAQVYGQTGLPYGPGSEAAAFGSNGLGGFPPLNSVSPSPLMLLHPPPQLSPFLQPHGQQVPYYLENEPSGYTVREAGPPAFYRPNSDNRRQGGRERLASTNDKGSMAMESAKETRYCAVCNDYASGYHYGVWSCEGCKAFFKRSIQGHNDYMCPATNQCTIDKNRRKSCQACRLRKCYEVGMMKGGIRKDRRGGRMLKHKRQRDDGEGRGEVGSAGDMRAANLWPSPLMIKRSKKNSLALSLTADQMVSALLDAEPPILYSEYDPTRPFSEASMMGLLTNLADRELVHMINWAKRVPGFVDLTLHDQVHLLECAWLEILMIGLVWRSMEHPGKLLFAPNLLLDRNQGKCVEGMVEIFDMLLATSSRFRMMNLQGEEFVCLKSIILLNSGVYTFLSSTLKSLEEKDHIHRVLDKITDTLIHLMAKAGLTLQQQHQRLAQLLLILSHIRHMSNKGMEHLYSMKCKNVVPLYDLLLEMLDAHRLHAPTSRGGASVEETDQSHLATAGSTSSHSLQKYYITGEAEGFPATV

[11] = target: Prothrombin (Homo sapiens, UniProt P00734); experiment: Thrombin 1536 HTS Dose Response Confirmation. [Related pubchem assays: 1046 (Thrombin 1536 HTS; hits were confirmed in this assay)]; type: functional
[12] = target: T2, Ubiquitin-conjugating enzyme E2 N (Homo sapiens, UniProt P61088); type: functional;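 further: Dose-response confirmation in a TR-FRET assay detecting UBC13-driven polyubiquitin chain formation, inhibition measured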
T2 sequence (P61088 whole entry): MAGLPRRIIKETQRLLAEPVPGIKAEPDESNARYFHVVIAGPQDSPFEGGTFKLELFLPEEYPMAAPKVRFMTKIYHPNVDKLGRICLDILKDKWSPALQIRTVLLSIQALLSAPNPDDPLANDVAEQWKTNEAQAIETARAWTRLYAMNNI

[13] = target: T3, DNA repair protein RAD52 homolog (Homo sapiens, UniProt P43351); type: functional, biochemical
T3 sequence (P43351 whole entry): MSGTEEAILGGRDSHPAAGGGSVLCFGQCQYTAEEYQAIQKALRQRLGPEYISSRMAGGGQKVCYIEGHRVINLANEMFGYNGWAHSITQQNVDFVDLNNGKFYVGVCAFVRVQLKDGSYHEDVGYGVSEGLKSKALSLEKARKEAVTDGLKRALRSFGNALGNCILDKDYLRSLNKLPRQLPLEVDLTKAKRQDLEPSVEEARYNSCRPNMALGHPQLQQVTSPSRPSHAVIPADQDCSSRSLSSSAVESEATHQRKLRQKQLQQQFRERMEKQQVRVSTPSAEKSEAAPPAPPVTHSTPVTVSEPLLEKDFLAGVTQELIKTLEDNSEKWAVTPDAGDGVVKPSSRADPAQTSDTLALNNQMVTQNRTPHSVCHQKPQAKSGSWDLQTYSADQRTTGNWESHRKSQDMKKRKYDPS

[14] = target: T4, Heat shock factor protein 1 (Mus musculus, UniProt P38532); experiment: decrease of HSF1-responsive luciferase luminescence – cell-based, NIH3T3, dose retest, confirmation (AID 2382); type: functional;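 further: NIH3T3 fibroblasts with HSF1-driven luciferase reporter stressed by proteasome inhibitor MG132; luminescence from HSF1-driven luciferase expression after 8 hours of MG132 stress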
T4 sequence (P38532 whole entry): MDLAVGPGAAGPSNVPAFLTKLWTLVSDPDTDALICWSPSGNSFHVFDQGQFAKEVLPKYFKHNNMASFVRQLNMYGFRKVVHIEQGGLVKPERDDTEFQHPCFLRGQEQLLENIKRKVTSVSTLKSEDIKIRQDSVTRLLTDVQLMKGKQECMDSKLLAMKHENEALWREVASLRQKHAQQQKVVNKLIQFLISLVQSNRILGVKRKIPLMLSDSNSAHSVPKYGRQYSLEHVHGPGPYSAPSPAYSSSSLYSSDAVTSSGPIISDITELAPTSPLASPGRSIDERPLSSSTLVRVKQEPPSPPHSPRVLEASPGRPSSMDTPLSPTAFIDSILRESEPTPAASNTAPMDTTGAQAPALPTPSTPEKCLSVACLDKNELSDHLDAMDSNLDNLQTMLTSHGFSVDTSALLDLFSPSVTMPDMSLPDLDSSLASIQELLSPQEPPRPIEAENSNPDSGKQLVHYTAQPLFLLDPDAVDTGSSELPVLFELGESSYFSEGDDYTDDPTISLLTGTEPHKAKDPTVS

Sequence of Estrogen receptor beta (Q92731 whole entry): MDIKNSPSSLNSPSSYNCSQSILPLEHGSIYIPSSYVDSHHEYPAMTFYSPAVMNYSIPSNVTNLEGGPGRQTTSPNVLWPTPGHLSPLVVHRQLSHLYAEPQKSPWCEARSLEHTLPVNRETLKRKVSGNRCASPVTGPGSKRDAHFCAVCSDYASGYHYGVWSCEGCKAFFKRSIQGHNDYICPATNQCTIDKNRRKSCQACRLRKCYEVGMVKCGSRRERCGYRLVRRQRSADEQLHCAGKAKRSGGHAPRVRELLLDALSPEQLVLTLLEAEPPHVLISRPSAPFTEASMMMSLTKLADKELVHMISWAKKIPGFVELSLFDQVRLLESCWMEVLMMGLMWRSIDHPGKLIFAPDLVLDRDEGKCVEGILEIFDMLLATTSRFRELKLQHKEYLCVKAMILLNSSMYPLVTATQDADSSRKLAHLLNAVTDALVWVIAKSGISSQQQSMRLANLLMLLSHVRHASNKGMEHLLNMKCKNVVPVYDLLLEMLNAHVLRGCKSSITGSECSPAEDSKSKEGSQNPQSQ

## Cc1nn(Cc2ccccc2Cl)c(C)c1C(=O)NCc1ccco1
[1]
  IC50: > 50 µM (not active)

## CN(C)[C@@H](CCOc1cccc2ccccc12)c1ccccc1 [DAPOXETINE]
[2]
  IC50: > 20 µM (inactive)
[3]
  IC50: 12.8 µM (inactive)
[4]
  IC50: > 20 µM (inactive)
[5]
  IC50: 9.86 µM (inactive)
[6]
  IC50: > 20 µM (inactive)
[7]
  IC50: > 20 µM (inactive)
[8]
  IC50: > 20 µM (inactive)
[9]
  IC50: 8.11 µM (inactive)

## C=CCn1c(SCC(=O)NC2CCCCC2)nnc1C(C)NC(=O)c1cccs1 (centres undefined)
[10]
  IC50: > 50 µM (not active)

## Cc1cccc(NC2=NC(=O)/C(=C3/C(=O)N(C)c4ccccc43)S2)c1C
[10]
  IC50: 32.9 µM (not active)

## Cc1ccc(-c2nc(N)n(C(=O)Cc3ccccc3)n2)cc1
[11]
  IC50: 1.82 µM (active)

## CN1CCN(C2Cc3ccccc3Sc3ccc(Cl)cc32)CC1 (centres undefined)
[2]
  IC50: 6.31 µM (inactive)
[3]
  IC50: 7.87 µM (inactive)
[12]
  IC50: > 20 µM (inactive)
[4]
  IC50: 9.17 µM (inactive)
[5]
  IC50: 8.4 µM (inactive)
[13]
  AC50: 22.5 µM (active)
[6]
  IC50: > 6.67 µM (inactive)
[7]
  IC50: > 20 µM (inactive)
[8]
  IC50: 8 µM (inactive)
[9]
  IC50: > 20 µM (inactive)

## Cc1occc1C(=O)Nc1cc(C(F)(F)F)ccc1Cl
[14]
  EC50: > 195 µM (not active)
[11]
  IC50: > 50 µM (not active)
